Molecules are shown by their SMILES. Values after ≈ are worked out from the molar mass of the structure shown.

The data set is described as follows: Aqueous equilibrated solubility. The format is physicochemical. The settings on record: thermodynamic from solid; aqueous phosphate buffer 50 mM pH 7.4, shaken overnight at RT; pH 7.5 = pH of the solubilized fraction. On the procedure: The studied compound was accurately weighted with a target concentration of 2 mg/mL in an aqueous phosphate buffer (50 mM at pH=7.4). The solution was shaken overnight (rock'n roll shaker) at RT and protected from light (about 24 hrs). The solution was filtered in plate filter device (microplate Millipore “Solvinert” with integrated PTFE filter; 0.45 μm) and the filtrate was dosed by LC/UV method.
The studied compound was accurately weighted with a target concentration of 0.1 mg/mL in DMSO. The solution was sonicated at RT and protected from light. The reference solution was dosed by a LC/UV method and pH of the solubilized fraction was measured.

Usually solubility stands for the dissolved amount per volume that the medium holds. A lower solubility goes with a poorly soluble substance. Turning to `O=C(Cc1ccc([S@+]([O-])CC2CC2)cc1)Nc1ccc([C@@](O)(C(F)F)C(F)(F)F)cc1` (single isomer, unassigned) [Example 12], the solubility at 24 h stood at 94.4 µg/mL (≈ 205 µM).

Compound `O=C(Cc1ccc([S@@+]([O-])CC2CC2)cc1)Nc1ccc([C@@](O)(C(F)F)C(F)(F)F)cc1` (single isomer, unassigned) [Example 10] gave a solubility at 24 h of 94.8 µg/mL (≈ 205 µM).

The compound `O=C(Cc1ccc([S@@+]([O-])CC2CC2)cc1)Nc1ccc([C@](O)(C(F)F)C(F)(F)F)cc1` (single isomer, unassigned) [Example 11] displayed a solubility at 24 h of 92.5 µg/mL (≈ 200 µM).

Compound `O=C(Cc1ccc([S+]([O-])CC2CC2)cc1)Nc1ccc(C(O)(C(F)F)C(F)(F)F)cc1` (centres unmarked) [Example 9, 2-[4-(cyclopropylmethylsulfinyl)phenyl]-N-[4-[1-(difluoromethyl)-2,2,2-trifluoro-1-hydroxy-ethyl]phenyl]acetamide] showed a solubility at 24 h of 99.4 µg/mL (≈ 215 µM).

As to `O=C(Cc1ccc([S@+]([O-])CC2CC2)cc1)Nc1ccc([C@](O)(C(F)F)C(F)(F)F)cc1` (single isomer, unassigned) [Example 13], the solubility at 24 h is 93 µg/mL (≈ 202 µM).

The values above are taken from patent US20190119204A1, “ROR GAMMA (RORy) MODULATORS” (Lead Pharma Holding B.V., priority 2016, published 2019).
